Reference: patent US11266670B2, “Use of scutellarin in a medicament and a modulator for preventing or treating diseases, medicament, and modulator” (University of Macau, priority 2019, dated 2022)
Starred links: 1 amine or outer side, 2 acyl side, 3 side chain; linkers in the order of their positions; H or OH if unused. Positions of bridges follow the written chain, without caps; N, C: chain ends. Non-standard residues stand in square brackets, D forms with d. Residues, ends and D or L forms follow the SMILES beside them. Chains are numbered I, II in the order given. Actinocin(9to1) = Cc1c2oc3c(C)ccc(C(=O)[*:1])c3nc-2c(C(=O)[*:2])c(N)c1=O; NMeV = CN[C@H](C(=O)O)C(C)C; Sar = CNCC(=O)O

Columns and labels:
WEHI-13VAR cells = experiment: TNF bioassay: TNF-induced death of WEHI-13VAR cells in the presence of AcD (MTT); assay type: cell-based
Experimental: WEHI-13VAR is a fibrosarcoma cell line that is extremely sensitive to TNF-induced cell death in the presence of AcD (0.5 μg/ml) and is commonly used in TNF bioassays. In TNF bioassays, the presence of AcD is a standard approach designed to increase the sensitivity of cells to TNF. TNF acts by binding to its two functionally distinct receptors, TNFR1 and TNFR2. To identify which TNF receptor was expressed on WEHI-13VAR cells, we measured the expression of TNFR1 and TNFR2 on WEHI-13VAR by FACS. […] In the case of labeling with PE anti-mouse TNFR2 antibody, the expression of TNFR2 was higher than in the case of labeling with the isotype control by 50%. […] Furthermore, in order to investigate which TNF receptor is responsible for TNF-induced cell death, we stimulated the cells with TNF, and co-cultured the cells with anti-TNFR1 antibody or anti-TNFR2 antibody for 24 hours. Cell viability was measured by MTT. […]
CHIs are injections developed in China and approved by the China Food and Drug Administration. […] We screened eleven CHIs and assessed their effects on WEHI-13VAR cells by TNF bioassay. […]
WEHI-13VAR cells were seeded in 96-well plates at 1.5×10^4 cells/well. […] Absorbance values were read at 570 nm using a 1420 Multilabel counter victor (PerkinElmer, Waltham, Mass., USA). Cell viability was expressed as the ratio of absorbance values between the sample and the blank control group.

Tregs = experiment: TNF-induced up-regulation of Tregs and Foxp3/TNFR2 expression in cultured lymphocytes (FACS); assay type: cell-based; conditions: in vitro
Experimental: FIG. 5. […] Lymphocytes were cultured in the presence of IL-2 (10 ng/mL) or IL-2+TNF (10 ng/mL each), with medium alone or with scutellarin (25-50 μM) for 72 hours. (A) Typical FACS analysis of Tregs is shown. The data as shown are representative of at least three separate experiments with similar results. The numbers in the FACS plots show the proportion of cells in the respective quadrants. (B) Summary of the proportion of CD4^+Foxp3^+ cells in CD4^+ cells. (C) Summary of MFI of Foxp3 expression on Tregs. (D) Typical FACS plots of the proportion of TNFR2^+ cells in Tregs. (E) Summary of the proportion of TNFR2^+ cells in CD4^+Foxp3^+Tregs. (F) Summary of MFI of TNFR2 expression on Tregs (by gating on Foxp3^+ cells) (N=3, mean±SEM). ** p<0.01, *** p<0.001, compared to the “TNF+IL-2” group. The data as shown are representative of at least three separate experiments with similar results.
We then explored the effect of scutellarin on the TNF-induced proliferation of Tregs in an in vitro experiment. […]
Lymphocytes were obtained from spleens, axillary lymph nodes, inguinal lymph nodes and mesenteric lymph nodes of mice. […] The proliferation of Tregs was assessed by CFSE dilution assay, and the proportion of Foxp3^+ cells in the CD4^+ subset and the proportion of TNFR2 expressed on Tregs were analyzed by FACS. […] The expression of Foxp3 and TNFR2 was analyzed by FACS. […]

Structure (SMILES): Cc1c2oc3c(C)ccc(C(=O)N[C@@H]4C(=O)N[C@H](C(C)C)C(=O)N5CCC[C@H]5C(=O)N(C)CC(=O)N(C)[C@@H](C(C)C)C(=O)O[C@@H]4C)c3nc-2c(C(=O)N[C@@H]2C(=O)N[C@H](C(C)C)C(=O)N3CCC[C@H]3C(=O)N(C)CC(=O)N(C)[C@@H](C(C)C)C(=O)O[C@@H]2C)c(N)c1=O [AcD, actinomycin D, reference compound] (I: T[dV]P[Sar][NMeV] / II: T[dV]P[Sar][NMeV]; ester I:1-I:C, II:1-II:C; linker I:N-II:N via Actinocin(9to1))
- death of WEHI-13VAR cells induced by AcD (WEHI-13VAR cells; AcD 0.5 μg/ml alone): approximately 30%

Structure (SMILES): O=C(O)[C@H]1O[C@@H](Oc2cc3oc(-c4ccc(O)cc4)cc(=O)c3c(O)c2O)[C@H](O)[C@@H](O)[C@@H]1O [scutellarin]
- cytotoxicity against WEHI-13VAR cells (WEHI-13VAR cells; scutellarin 12.5-200 μM): no significant cytotoxicity against WEHI-13VAR cells
- 50% lethal dose of scutellarin (Tregs): higher than 100 μM
